# Read-outs that look alike come from different tables or passages of the source. Starred links: 1 amine or outer side, 2 acyl side, 3 side chain; linkers in the order of their positions; H or OH if unused. Non-standard residues stand in square brackets, D forms with d. Residues, ends and D or L forms follow the SMILES beside them. Phe(4-(5-CO2H-2-pyrimidyl)) = N[C@@H](Cc1ccc(-c2ncc(C(=O)O)cn2)cc1)C(=O)O; dPro(4R-(4-pyridylmethyl)) = O=C(O)[C@H]1C[C@@H](Cc2ccncc2)CN1; Trp(βS-Me,4-F) = C[C@@H](c1c[nH]c2cccc(F)c12)[C@H](N)C(=O)O; 3Aminoazetidine3carboxyl = O=C(C1(N[*:1])CN([*:3])C1)[*:2]; Bip(4'-COOH) = N[C@@H](Cc1ccc(-c2ccc(C(=O)O)cc2)cc1)C(=O)O; Ala(1-bicyclo(1.1.1)pentyl) = N[C@@H](CC12CC(C1)C2)C(=O)O; dPro(4R-Bzl(4-F)) = O=C(O)[C@H]1C[C@@H](Cc2ccc(F)cc2)CN1; Ala(pyrimidin-5-yl) = N[C@@H](Cc1cncnc1)C(=O)O; Phe(4-COOH) = N[C@@H](Cc1ccc(C(=O)O)cc1)C(=O)O; X30 = O=C([C@@H](N[*:1])[C@H](O)c1ccncc1)[*:2]; Lys(Me3) = C[N+](C)(C)CCCC[C@H](N)C(=O)O; Pro(cis-4-F) = O=C(O)[C@@H]1C[C@H](F)CN1; hTyr = N[C@@H](CCc1ccc(O)cc1)C(=O)O; d(αMeD) = C[C@@](N)(CC(=O)O)C(=O)O; 4Pal = N[C@@H](Cc1ccncc1)C(=O)O; Dab = NCC[C@H](N)C(=O)O; Aib = CC(C)(N)C(=O)O
# Molecular target: T1, IL-1β (Homo sapiens, UniProt P01584)
# T1 construct: purchased BioLegend 579404
# T1 sequence (P01584 117-269): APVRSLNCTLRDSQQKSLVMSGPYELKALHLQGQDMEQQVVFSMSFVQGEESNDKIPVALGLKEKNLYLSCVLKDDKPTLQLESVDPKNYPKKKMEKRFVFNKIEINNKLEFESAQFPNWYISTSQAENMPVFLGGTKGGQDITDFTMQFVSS
# Assay: IL-6 assay in MRC5 cells: inhibition of IL-1β induced IL-6 secretion (AlphaLISA)
# Format: cell-based
# Settings: inhibition of IL-1β induced IL-6 secretion in MRC5 cells, read-out: MRC5 IC50
# In short: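 Compound was pre-incubated 1 h at ambient temperature with recombinant human IL-1β at 2λ EC80 before adding human lung fibroblast MRC5 cells (3000/well) in EMEM with 0.025% BSA. After overnight culture at 37 °C, 5% CO2, secreted IL-6 in conditioned medium was measured by AlphaLISA; IC50 from 4-parameter logistic fits.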
# [1] = compound pre-incubated 1 hour with recombinant human IL-1β
SMILES,IC50 [1] [nM],IC50 [nM]
"C[C@@H](c1c[nH]c2cccc(F)c12)[C@@H]1NC(=O)[C@@H]2C[C@H](F)CN2C(=O)CNC(=O)[C@H](Cc2ccc(C(=O)O)cc2)NC(=O)[C@H](Cc2ccncc2)NC(=O)[C@H](Cc2ccc(-c3ccc(C(=O)O)cc3)cc2)NC(=O)[C@H]2C[C@@H](Cc3ccc(F)cc3)CN2C(=O)CNC(=O)[C@H](CCN)NC(=O)[C@H](CCC(N)=O)NC(=O)[C@H](CCCC[N+](C)(C)C)NC(=O)C(C)(C)NC(=O)[C@H](Cc2c[nH]c3ccccc23)NC(=O)[C@H](CO)NC(=O)C(C)(C)NC1=O [Example 298] (cyclo([Bip(4'-COOH)][4Pal][Phe(4-COOH)]G[Pro(cis-4-F)][Trp(βS-Me,4-F)][Aib]SW[Aib][Lys(Me3)]Q[Dab]G[dPro(4R-Bzl(4-F))]))",0.015,
"C[C@@H](c1c[nH]c2cccc(F)c12)[C@@H]1NC(=O)[C@@H]2C[C@H](F)CN2C(=O)CNC(=O)[C@H](Cc2ccc(C(=O)O)cc2)NC(=O)[C@H](Cc2ccncc2)NC(=O)[C@H](Cc2ccc(-c3ccc(C(=O)O)cc3)cc2)NC(=O)[C@H]2C[C@@H](Cc3ccc(F)cc3)CN2C(=O)CNC(=O)[C@H](CCN)NC(=O)[C@H](CCC(N)=O)NC(=O)[C@H](CO)NC(=O)C(C)(C)NC(=O)[C@H](Cc2c[nH]c3ccccc23)NC(=O)[C@H](CO)NC(=O)C(C)(C)NC1=O [Example 5] (cyclo([Bip(4'-COOH)][4Pal][Phe(4-COOH)]G[Pro(cis-4-F)][Trp(βS-Me,4-F)][Aib]SW[Aib]SQ[Dab]G[dPro(4R-Bzl(4-F))]))",,0.039
"C[C@@H](c1c[nH]c2cccc(F)c12)[C@@H]1NC(=O)[C@@H]2C[C@H](F)CN2C(=O)CNC(=O)[C@H](Cc2ccc(C(=O)O)cc2)NC(=O)[C@H](Cc2ccncc2)NC(=O)[C@H](Cc2ccc(-c3ccc(C(=O)O)cc3)cc2)NC(=O)[C@H]2C[C@@H](Cc3ccc(F)cc3)CN2C(=O)CNC(=O)[C@H](CCN)NC(=O)[C@H](CCC(N)=O)NC(=O)[C@H]([C@H](O)c2ccncc2)NC(=O)C(C)(C)NC(=O)[C@H](Cc2c[nH]c3ccccc23)NC(=O)[C@H](CO)NC(=O)C(C)(C)NC1=O [Example 273] (cyclo([Bip(4'-COOH)][4Pal][Phe(4-COOH)]G[Pro(cis-4-F)][Trp(βS-Me,4-F)][Aib]SW[Aib][X30]Q[Dab]G[dPro(4R-Bzl(4-F))]))",0.013,
"C[C@@H](c1c[nH]c2cccc(F)c12)[C@@H]1NC(=O)[C@@H]2C[C@H](F)CN2C(=O)CNC(=O)[C@H](Cc2ccc(C(=O)O)cc2)NC(=O)[C@H](Cc2ccncc2)NC(=O)[C@H](Cc2ccc(-c3ncc(C(=O)O)cn3)cc2)NC(=O)[C@H]2C[C@@H](Cc3ccc(F)cc3)CN2C(=O)CNC(=O)[C@H](CCN)NC(=O)[C@H](CCC(N)=O)NC(=O)[C@H](Cc2ccncc2)NC(=O)C2(CNC2)NC(=O)[C@H](Cc2c[nH]c3ccccc23)NC(=O)[C@H](CCC(=O)O)NC(=O)C(C)(C)NC1=O [Example 81] (cyclo([Phe(4-(5-CO2H-2-pyrimidyl))][4Pal][Phe(4-COOH)]G[Pro(cis-4-F)][Trp(βS-Me,4-F)][Aib]EW[3Aminoazetidine3carboxyl][4Pal]Q[Dab]G[dPro(4R-Bzl(4-F))]))",,0.049
"C[C@@H](c1c[nH]c2cccc(F)c12)[C@@H]1NC(=O)[C@@H]2C[C@H](F)CN2C(=O)CNC(=O)[C@H](Cc2ccc(C(=O)O)cc2)NC(=O)[C@H](Cc2ccncc2)NC(=O)[C@H](Cc2ccc(-c3ccc(C(=O)O)cc3)cc2)NC(=O)[C@H]2C[C@@H](Cc3ccncc3)CN2C(=O)CNC(=O)[C@H](CCN)NC(=O)[C@H](CCC(N)=O)NC(=O)[C@H](CCc2ccc(O)cc2)NC(=O)[C@@](C)(CC(=O)O)NC(=O)[C@H](Cc2c[nH]c3ccccc23)NC(=O)[C@H](CO)NC(=O)C(C)(C)NC1=O [Example 256] (cyclo([Bip(4'-COOH)][4Pal][Phe(4-COOH)]G[Pro(cis-4-F)][Trp(βS-Me,4-F)][Aib]SW[d(αMeD)][hTyr]Q[Dab]G[dPro(4R-(4-pyridylmethyl))]))",0.012,
"C[C@@H](c1c[nH]c2cccc(F)c12)[C@@H]1NC(=O)[C@@H]2C[C@H](F)CN2C(=O)CNC(=O)[C@H](Cc2ccc(C(=O)O)cc2)NC(=O)[C@H](CC23CC(C2)C3)NC(=O)[C@H](Cc2ccc(-c3ncc(C(=O)O)cn3)cc2)NC(=O)[C@H]2C[C@@H](Cc3ccncc3)CN2C(=O)CNC(=O)[C@H](CCN)NC(=O)[C@H](CCC(N)=O)NC(=O)[C@H](Cc2cncnc2)NC(=O)C(C)(C)NC(=O)[C@H](Cc2c[nH]c3ccccc23)NC(=O)[C@H](CO)NC(=O)C(C)(C)NC1=O [Example 198] (cyclo([Phe(4-(5-CO2H-2-pyrimidyl))][Ala(1-bicyclo(1.1.1)pentyl)][Phe(4-COOH)]G[Pro(cis-4-F)][Trp(βS-Me,4-F)][Aib]SW[Aib][Ala(pyrimidin-5-yl)]Q[Dab]G[dPro(4R-(4-pyridylmethyl))]))",,0.024

# Source: US20260242419A1, “A CYCLIC PEPTIDE FOR TRAPPING INTERLEUKIN-1 BETA” (Merck Sharp & Dohme LLC, priority 2023, published 2026)
